Assay results reported in ChEMBL document CHEMBL1201862, “PubChem BioAssay data set” (2004).
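96-well plates; 48 h exposure; 5 concentrations. Endpoints by linear interpolation between flanking doses. Not reached: highest tested concentration assigned. GI50 is the concentration that inhibits growth by half.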 Activity calls are given as the source filed them. Cut-off read from the data, not from the text of the source: active = GI50 up to about 1.1 µM and inactive = higher.

What was measured:
Assay in all cases: growth of human tumour cells (NCI), 48 h
[1] = tested on: DMS-114
[2] = tested on: ACHN
[3] = tested on: K562
[4] = tested on: XF498
[5] = tested on: COLO 205
[6] = tested on: SNB-19
[7] = tested on: DMS-273
[8] = tested on: SN12C
[9] = tested on: M14
[10] = tested on: SK-MEL-28
[11] = tested on: OVCAR-3
[12] = tested on: MOLT-4
[13] = tested on: UO-31
[14] = tested on: LOX IMVI
[15] = tested on: Malme-3M
[16] = tested on: HCT-116
[17] = tested on: NCI-H226
[18] = tested on: SW-620
[19] = tested on: CCRF-CEM
[20] = tested on: OVCAR-5
[21] = tested on: CAKI-1
[22] = tested on: UACC-62
[23] = tested on: SNB-75
[24] = tested on: HCC 2998
[25] = tested on: HCT-15
[26] = tested on: EKVX
[27] = tested on: HOP-92
[28] = tested on: SK-OV-3
[29] = tested on: IGROV-1
[30] = tested on: HOP-62
[31] = tested on: OVCAR-8
[32] = tested on: M19-MEL
[33] = tested on: SK-MEL-2
[34] = tested on: NCI-H522
[35] = tested on: OVCAR-4
[36] = tested on: KM-20L2
[37] = tested on: DLD-1
[38] = tested on: SF-268
[39] = tested on: SF-539
[40] = tested on: KM12
[41] = tested on: A549
[42] = tested on: TK-10

COc1ccc2c(c1)c1cc(OC)ccc1n2CCCCOc1ccc(-c2c3ccccc3c(-c3ccc(OCCCCn4c5ccc(OC)cc5c5cc(OC)ccc54)cc3)c3ccccc23)cc1 was tested, and the GI50 [1] was > 100 µM (inactive), the GI50 [2] was > 100 µM (inactive) and the GI50 [3] was > 100 µM (inactive). For the same compound, the GI50 [4] was > 100 µM (inactive), the GI50 [5] was > 100 µM (inactive) and the GI50 [6] was > 100 µM (inactive). The GI50 [7] was > 100 µM (inactive), the GI50 [8] was > 100 µM (inactive) and the GI50 [9] was > 100 µM (inactive). The GI50 [10] was > 100 µM (inactive), the GI50 [11] was > 100 µM (inactive) and the GI50 [12] was > 100 µM (inactive). The GI50 [13] was > 100 µM (inactive), the GI50 [14] was > 100 µM (inactive) and the GI50 [15] was > 100 µM (inactive). For the same compound, the GI50 [16] was > 100 µM (inactive), the GI50 [17] was > 100 µM (inactive) and the GI50 [18] was > 100 µM (inactive). For the same compound, the GI50 [19] was > 100 µM (inactive), the GI50 [20] was > 100 µM (inactive) and the GI50 [21] was > 100 µM (inactive). For the same compound, the GI50 [22] was > 100 µM (inactive), the GI50 [23] was > 100 µM (inactive) and the GI50 [24] was > 100 µM (inactive). For the same compound, the GI50 [25] was > 100 µM, the GI50 [26] was > 100 µM (inactive) and the GI50 [27] was > 100 µM (inactive). The GI50 [28] was > 100 µM (inactive), the GI50 [29] was > 100 µM (inactive) and the GI50 [30] was > 100 µM (inactive). The GI50 [31] was > 100 µM (inactive), the GI50 [32] was > 100 µM (inactive) and the GI50 [33] was > 100 µM (inactive). For the same compound, the GI50 [34] was > 100 µM (inactive), the GI50 [35] was > 100 µM (inactive) and the GI50 [36] was > 100 µM (inactive). The GI50 [37] was > 100 µM (inactive), the GI50 [38] was > 100 µM (inactive) and the GI50 [39] was > 100 µM (inactive). The GI50 [40] was > 100 µM (inactive), the GI50 [41] was > 100 µM (inactive) and the GI50 [42] was > 100 µM (inactive).
